Structures can show the parent of a compound that is named as a salt. Where two headings read alike, the source gives them in different places.
Tests used:
Hygroscopicity test = format: physicochemical; details: 25° C.±1° C., RH 80%±2%, 24 h
Protocol: 1. A dried glass weighing bottle (Outer diameter […]) with a plug was put into an artificial climate box under the temperature of 25° C.±1° C. and relative humidity (RH) of 80%±2% the day before and then weighed precisely (m1).
2. The testing sample was weighed precisely (m2) and lain into the weighing bottle. The thickness of the test sample was about 1 mm.
3. The uncovered weighing bottle and its plug were placed under the above constant temperature and humidity conditions for 24 h.
4. The weighing bottle was covered and weighed precisely (m3).
Calculation formula: Percent of weight increase=(m3−m2)/(m2−m1)*100%
5. Definition of the weight increase of the hygroscopicity
Deliquescence: absorbing enough water to form liquid.
High hygroscopicity: the weight increase of the hygroscopicity is no less than 15%
Having hygroscopicity: the weight increase of the hygroscopicity is between 15% and 2%
Slight hygroscopicity: the weight increase of the hygroscopicity is between 2% and 0.2%
No or almost no hygroscopicity: the weight increase of the hygroscopicity is less than 0.2%

Solubility test = details: conclusion of the solubility test
Protocol: Moreover, “1:40” refers to 1 g of sample was dissolved in 40 ml of methanol at room temperature, the same as “1:80”; “1:120” refers to 1 g of sample was dissolved in 40 ml of ethanol at room temperature, the same as “1:200”.

[1] = test system: blood pressure of SHR rats; assay: Antihypertensive effect test for spontaneously hypertensive (SHR) rats; format: in vivo; details: 10 mg/kg
Protocol: Antihypertensive Effect Test For Spontaneously Hypertensive (SHR) Rats
38 of 25 week old SHR male rats were randomly divided into 4 groups according to the initial blood pressure, with 6 for the control group (solvent) and 8 for other groups. 10 mg/kg of example 2 compound (Choline Azilsartan), example 4 compound (Azilsartan ethanolamine salts) and control (Azilsartan medoxomil potassium salt) were continuously administered, respectively. The solvent control group was administered solvent. The administration volume was 5 ml/kg and the period was 2 weeks.

Beagle dog = format: in vivo; details: for Clinical observations: Beagle dog, intragastric
Text: Acute Toxicity Test Research for Beagle Dog
Object: Approximate lethal dose method was introduced in the test to observe the acute toxicity response of the animals by intragastric administration of example 2 or Azilsartan medoxomil potassium salt to Beagle dogs to study the toxicity situation of example 2 after administration and compare the toxicity of example 2 and Azilsartan medoxomil potassium salt, which can provide reference confirmation for the evaluation of toxicity of example 2.
Method (approximate lethal dose method): 6 Beagle dogs were used, 3 for each of example 2 group and Azilsartan medoxomil potassium salt group. The administration dosage was 0.09, 0.13, 0.19, 0.28, 0.42, 0.63, 0.95, 1.42, 2.13, 3.20 g·kg^−1 respectively, wherein 3.20 g·kg^−1 was the maximum administration dosage (corresponding to 1081 times the given dosage for the clinical patient). The blood was collected before administration and on days 2, 7, and 14 after administration to test the corresponding biochemical indicators. Electrocardiogram, body weight, and body temperature were determined before administration and on days 7 and 14 after administration.

## CCOc1nc2cccc(C(=O)[O-])c2n1Cc1ccc(-c2ccccc2-c2noc(=O)[nH]2)cc1.C[N+](C)(C)CCO [Example 1]
Hygroscopicity test
  Conclusion (hygroscopic or not): Yes
  Hygroscopicity (percent of weight increase): 10.51%
Solubility test
  Solubility, comparison between samples: comparable to the solubility of example 2 compound

## CCOc1nc2cccc(C(=O)O)c2n1Cc1ccc(-c2ccccc2-c2noc(=O)[nH]2)cc1.CCOc1nc2cccc(C(=O)O)c2n1Cc1ccc(-c2ccccc2-c2noc(=O)[nH]2)cc1.NCCO [Example 4]
Hygroscopicity test
  Hygroscopicity (percent of weight increase): 0.08%
Hygroscopicity test; listed as Example 4 Compound
  Conclusion (hygroscopic or not): No
Hygroscopicity test; listed as example 4 compound
  Conclusion (hygroscopic or not): not hygroscopic
[1]; SHR rats, 2 weeks
  Antihypertensive effect compared with control (Azilsartan medoxomil potassium salt): superior to the antihypertensive effect of control
  Antihypertensive effect, ranking under the same dosage: less effective
[1]; continuously administered for one or two weeks, FIG. 4
  Effect on blood pressure of SHR rats compared with solvent control: reduce the blood pressure of SHR rats significantly

## CCOc1nc2cccc(C(=O)O)c2n1Cc1ccc(-c2ccccc2-c2noc(=O)[nH]2)cc1.NCCO [Example 3]
Hygroscopicity test
  Conclusion (hygroscopic or not): Yes
  Hygroscopicity (percent of weight increase): 5.66%

## CCOc1nc2cccc(C(=O)OCc3oc(=O)oc3C)c2n1Cc1ccc(-c2ccccc2-c2noc(=O)[nH]2)cc1 [Azilsartan kamedoxomil, Azilsartan medoxomil potassium salt, reference compound]
Beagle dog; 1.42 g·kg^−1 dosage group
  Clinical observations: vomit, less moving; moving reduction on day 2 after administration, moving recovered on day 3 and no abnormality observed after day 3
Beagle dog; 2.13 g·kg^−1 dosage group
  Clinical observations: vomit, drooling, moving reduction; moving reduction on day 2 after administration, moving recovered on day 3 and no abnormality observed after day 3
Beagle dog; 3.20 g·kg^−1 dosage group
  Clinical observations: vomit, drooling, less moving; moving reduction on days 2˜8, prostration on days 5˜8, died on day 9
Beagle dog; dog, in vivo
  Body temperature: no abnormality on day 7 after administration
  Body weight: decreased on day 7 after administration compared with pre-administration
  Electrocardiogram and haematological indicators: not abnormal on day 7 after administration
  PT values: reduced significantly after administration compared to pre-administration
  Systolic blood pressure and diastolic blood pressure: reduced more or less on day 2 after administration

From patent publication US9233954B2, “Organic amine salts of Azilsartan, preparation method and use thereof” (Jiangsu Hansoh Pharmaceutical Co., Ltd., priority 2011, dated 2016)
